Common to all, as to format: cell-based
In assay [1] the test system is Escherichia coli. Put plainly: Micromax assay of ciprofloxacin-induced DNA fragmentation after a protein synthesis inhibitor (Example 1). As for the experimental part:
As an exemplification of the principals previously described, two strains of Escherichia coli exponentially growing in Mueller-Hinton broth were assayed (FIGS. 1-6). The first strain of Escherichia coli was a TG1 strain susceptible to both the aminoglycoside tobramycin (an inhibitor of protein synthesis) and the quinolone ciprofloxacin (an agent which induces DNA fragmentation by trapping of topoisomerases in DNA) (FIGS. 1-3). The second strain was a clinical isolate resistant to tobramycin and susceptible to ciprofloxacin (FIGS. 4-6). Four treatments were applied to each strain to rapidly distinguish the susceptible and the resistant strain to tobramycin.
One portion of both bacterial strains was incubated with tobramycin at 4 μg/ml for 40 minutes (FIGS. 1 and 4), a dosage indicated by the CLSI as the breakpoint of susceptibility to tobramycin in the standard antibiogram based on microdilution. Another portion of both strains was incubated with ciprofloxacin at 1 μg/ml for 30 min (FIGS. 2 and 5). Still another portion of both strains was incubated with tobramycin at 4 μg/ml for 10 min followed by ciprofloxacin at 1 μg/ml for 30 min, without removing the tobramycin (FIGS. 3 and 6). A final portion was left with no antibiotic.
After each incubation cells were processed using the variant of the Micromax technology to visualize the nucleoids, i.e. bacterial chromosomal DNA, in all the cells of the population. Cells from each culture were immersed in an agarose microgel on a slide and incubated with a specific lysing solution to remove the cell wall in all the cells and release in the microgel the nucleoids contained inside the bacteria. These are dried, stained with a high sensitive fluorochrome for DNA like SYBR Gold and visualized under fluorescence microscopy. FIGS. 1-6 depicts representative images captured under each of the conditions described below.
The above described methodology was employed to rapidly determine the susceptibility of 12 strains of E. coli to tobramycin. One portion of each bacterial strain was incubated with tobramycin at the susceptibility breakpoint dosage, 4 μg/ml, for 40 min. A portion of each strain was incubated with ciprofloxacin at 1 μg/ml for 30 min. Still another portion of each strain was incubated with tobramycin at 4 μg/ml for 10 min followed by ciprofloxacin at 1 μg/ml for 30 min, without removing the tobramycin. A final portion of each strain was left with no antibiotic. E. coli strains were identified as susceptible or not based on the levels of DNA fragmentation in the portion of each strain incubated with ciprofloxacin and the portion incubated with tobramycin and ciprofloxacin.
The principals exemplified in Example 1 were confirmed with the aminoglycoside amikacin. Briefly, a susceptible and resistant strain of E. coli were exposed to similar conditions to those described in Example 1, except that amikacin was utilized as the protein synthesis inhibiting antibiotic. Specifically, each was strain subjected to four treatments. One portion received no antibiotics, and another portion received only a quinolone, such as ciprofloxacin or norfloxacin to induce DNA fragmentation. Still another portion received the protein synthesis inhibiting antibiotic aminoglycoside amikacin, followed by the quinolone. Another portion received only amikacin. A final portion received neither antibiotic.
The principals exemplified in Example 1 were further confirmed with the aminoglycoside gentamicin. Briefly, the rapid test was performed on 15 isolated E. coli strains according to the methodology described above, except that gentamicinin was utilized as the protein synthesis inhibiting antibiotic. Suppressed DNA fragmentation were used to characterize bacterial susceptibility and those characterizations were verified with the standard antibiogram for gentamicin by microdilution. […]

The test system of assay [2] is Pseudomonas aeruginosa. As to the kind of experiment: Variant Micromax assay of cell enlargement by ceftazidime after tobramycin (Example 7). Conditions: ceftazidime alone 0.5 μg/ml 60 minutes; both strains. As to the method:
As an example, two strains of Pseudomonas aeruginosa exponentially growing in Mueller-Hinton broth were assayed. These strains were both susceptible to the β-lactam ceftazidime, which inhibits peptidoglycan synthesis. One strain was susceptible and the other resistant to the aminoglycoside tobramycin (an inhibitor of protein synthesis). For the purpose of rapidly distinguishing the susceptible and the resistant strain to tobramycin each strain was subjected to four treatments.
A portion of each strain was incubated with tobramycin at 4 μg/ml (the CLSI breakpoint of susceptibility) for 75 minutes. An assay of this portion is depicted at FIGS. 31 and 34. Another portion of each strain was incubated with ceftazidime at 0.5 μg/ml for 60 minutes. An assay of this portion is depicted at FIGS. 32 and 35. Still another portion of both strains was incubated with tobramycin at 4 μg/ml for 15 minutes followed by ceftazidime at 0.5 μg/ml for 60 minutes, without removing the tobramycin. Assays of these strains can be seen at FIGS. 33 and 36, respectively. A final portion of each strain was not treated with either antibiotic.
After incubation with the antibiotics, cells were processed using a variant Micromax technology to visualize the enlargement or not of the bacteria. Samples from each culture were immersed in an agarose microgel on a slide, dried, stained with a high sensitive fluorochrome for DNA like SYBR Gold and visualized under fluorescence microscopy to visualize cell shape and size.

In assay [3] the test system is Escherichia coli. Put plainly: Micromax assay of mitomycin C-induced DNA fragmentation after tobramycin (Example 2). As to conditions: mitomycin C alone 50 μg/ml 60 min; both strains. As for the experimental part: FIGS. 7-9 depict a TG1 strain susceptible to the aminoglycoside tobramycin, an inhibitor of protein synthesis, and mitomycin C, an agent which induces DNA damage. The other strain illustrated in FIGS. 10-12 was a clinical isolate resistant to tobramycin.
One portion of both bacterial strains was incubated with tobramycin at 4 μg/ml for 90 min (FIGS. 7 and 10), a dosage indicated by the CLSI as the breakpoint of susceptibility to tobramycin in the standard antibiogram based on microdilution. Another portion of both strains was incubated with mitomycin C at 50 μg/ml for 60 min (FIGS. 8 and 11). Still another portion of both strains was incubated with tobramycin at 4 μg/ml for 30 min followed by mitomycin C at 50 μg/ml for 60 min, without removing the tobramycin (FIGS. 9 and 12). A final portion was left with no antibiotic.
After incubation, cells were processed using a variant of the Micromax technology to visualize nucleoids, i.e. bacterial chromosomal DNA, in all the cells of the population. Samples from cells from the culture are immersed in an agarose microgel on a slide and incubated with a specific lysing solution to remove the cell wall in all the cells and release in the microgel the nucleoids contained inside the bacteria. These are dried, stained with a highly sensitive fluorochrome for DNA like SYBR Gold and visualized under fluorescence microscopy, Nucleoids from E. coli obtained using the Micromax assay are represented in FIGS. 7-12, FIGS. 7-9 correspond to a strain susceptible to tobramycin (TG1) and FIGS. 10-12 to a strain resistant to tobramycin.

The test system of assay [4] is Escherichia coli. As to the kind of experiment: Variant Micromax assay of cell enlargement by low-dose mitomycin C after tobramycin (Example 8). As to conditions: mitomycin C alone 0.5 μg/ml 60 minutes; both strains. As to the method:
As an example, two strains of Escherichia coli exponentially growing in Mueller-Hinton broth were incubated under four different conditions and then assayed. One strain was susceptible and the other resistant to the aminoglycoside tobramycin (an inhibitor of protein synthesis). For the purpose of rapidly distinguishing susceptible and non-susceptible strains to tobramycin each strain was incubated under four conditions.
A portion of each strain was incubated with tobramycin at 4 μg/ml for 90 minutes. As described previously, this dose is indicated by the CLSI as the breakpoint of susceptibility to tobramycin in the standard antibiogram based on microdilution. Another portion of both strains was incubated in Mitomycin C at 0.5 μg/ml for 60 minutes. Still another portion of each strain was incubated with tobramycin at 4 μg/ml for 30 minutes followed by mitomycin C at 0.5 μg/ml for 60 minutes, without removing the tobramycin. A final portion of both strains was not incubated with either antibiotic.
After the incubation, cells were processed using a variant Micromax technology to visualize any enlargement or not of the bacteria. Samples from cells from the culture were immersed in an agarose microgel on a slide, dried, stained with a highly sensitive fluorochrome for DNA like SYBR Gold and visualized under fluorescence microscopy to visualize cell shape and size. Images were similar those correspondent to the previous figure.

Assay [5] concerns Pseudomonas aeruginosa. Put plainly: Variant Micromax assay of cell wall damage by meropenem after tobramycin (Example 5). Conditions: meropenem alone 0.2 μg/ml 60 min; both strains. From the text: As an exemplification of this principal, FIGS. 19-24 illustrates assays of two strains of Pseudomonas aeruginosa exponentially growing in Mueller-Hinton broth. Both strains were both susceptible to the β-lactam meropenem, which inhibits peptidoglycan synthesis. One strain was susceptible (FIGS. 19-21) and the other resistant (FIGS. 22-24) to the aminoglycoside tobramycin (inhibitor of protein synthesis).
For the purpose of rapidly distinguishing susceptible and resistant (i.e. non-susceptible) strains to tobramycin each strain was subjected to four treatments. A portion of each strain was incubated with tobramycin at 4 μg/ml for 75 min (FIGS. 19 and 22). The dose utilized, was indicated by the CLSI as the breakpoint of susceptibility to tobramycin. FIGS. 20 and 23 illustrate an assay from another portion of each strain, which was incubated with Meropenem at 0.2 μg/ml for 60 min. FIGS. 21 and 24, illustrate assays from still another portion of both strains which was incubated with tobramycin at 4 μg/ml for 15 min followed by meropenem at 0.2 μg/ml for 60 min, without removing the tobramycin. Still another portion of both strains was maintained without the addition of either antibiotic.
After incubation cells were processed using a variant Micromax technology to visualize the affectation or not of the cell wall based on the release or not of the nucleoids contained inside the bacteria. In the same manner described previously, samples from cells from the culture are immersed in an agarose microgel on a slide and incubated with a specific lysing solution that removes the cell wall only in those bacteria whose peptidoglycan was affected, thus releasing in the microgel the nucleoids contained inside. […] The processed bacteria in microgel are dried, stained with a high sensitive fluorochrome for DNA like SYBR Gold and visualized under fluorescence microscopy.

Another assay has as its system Enterococcus faecalis. As to the kind of experiment: Variant Micromax assay of cell lysis by lysozyme after erythromycin (Example 6). As for the experimental part: As an example, two strains of Enterococcus faecalis exponentially growing in Mueller-Hinton broth were incubated under four different conditions and then assayed. […] Each strain was subjected to four treatments for the purpose of rapidly distinguishing the susceptible and the resistant strain to erythromycin.
The dose was that indicated by the CLSI as the breakpoint of susceptibility to erythromycin in the standard antibiogram based on microdilution. Another portion of both strains was incubated with lysozyme 1 mg/ml, 10 min at 37° C. […]
After incubation with lysozyme, the cells were processed using a variant of the Micromax technology to visualize the nucleoids, i.e. spreading of the bacterial chromosomal DNA, in all the cells of the population. Samples from the cultures were immersed in an agarose microgel on a slide and incubated with a specific lysing solution to remove the cell wall in all the cells and release in the microgel the nucleoids contained inside the bacteria. These are dried, stained with a highly sensitive fluorochrome for DNA like SYBR Gold and visualized under fluorescence microscopy.

A further assay has as its system Staphylococcus aureus. As to the kind of experiment: Micromax assay of DNA fragmentation by DNase released with lysostaphin after azithromycin (Example 3). As to conditions: lysostaphin alone 10 μg/ml 1 min; both strains. As to the method: In an exemplification of this principal, two strains of S. aureus growing in Mueller-Hinton agar with 5% sheep blood were assayed. One strain was susceptible to the macrolide azithromycin (an inhibitor of protein synthesis) (FIGS. 13-15) and the other strain was a clinical isolate resistant to azithromycin (FIGS. 16-18). The purpose was to rapidly distinguish susceptible and non-susceptible strains to azithromycin. Cultures were processed direct from standard growing agar plates 18-24 h and it was not necessary the cells being exponentially growing previously to the assay.
Each of these strain was subjected to four treatments. One portion of both strains was incubated with azithromycin at 2 μg/ml for 120 min; 2 μg/ml being indicated by the CLSI as the breakpoint of susceptibility to azithromycin. The cells were then lysed to release nucleoids and images of FIGS. 13 and 16 were generated. Another portion of each strain was incubated with lysostaphin at 10 μg/ml for 1 min. FIGS. 14 and 17 depict the nucleoids released in each strain for this treatment. Still another portion was incubated with Azithromycin at 2 μg/ml for 120 min followed by lysostaphin at 10 μg/ml for 1 min, without removing the azithromycin. The assays for these treatments can be seen at FIGS. 15 and 18. A final portion was left without either antibiotic.
After the incubation, the cells were processed using the variant of a Micromax technology to lyse cells with affected cell walls. As indicated previously, samples from cells from the culture are immersed in an agarose microgel on a slide and incubated with a specific lysing solution to remove the cell wall in those cells affected by lysostaphin and release in the microgel the nucleoids contained inside the bacteria. These are dried, stained with a highly sensitive fluorochrome for DNA like SYBR Gold and visualized under fluorescence microscopy.

The mark [6] stands for this setting: rapid test, confirmed by microdilution antibiogram, 12 strains for tobramycin, 15 for gentamicin.

Take gentamicin: in the assay on Escherichia coli [1] (setting [6]), the “E. coli strains identified as non-susceptible (resistant)” value is given as 5 and the “E. coli strains identified as susceptible” value is given as 10.

With `CC(C)(O/N=C(\C(=O)N[C@@H]1C(=O)N2C(C(=O)[O-])=C(C[n+]3ccccc3)CS[C@H]12)c1csc(N)n1)C(=O)O` [ceftazidime], the cell enlargement entry in the assay on Pseudomonas aeruginosa [2] is given as “significant cell enlargement”.

Regarding `CO[C@@]12[C@H](COC(N)=O)C3=C(C(=O)C(C)=C(N)C3=O)N1C[C@@H]1N[C@@H]12` [mitomycin C], the “DNA fragmentation of nucleoids” value with Escherichia coli [3] is reported as “nucleoids with fragmented DNA in both strains”. Further, the cell enlargement entry in the assay with Escherichia coli [4] was “significant cell enlargement”.

`C[C@@H](O)[C@H]1C(=O)N2C(C(=O)O)=C(S[C@@H]3CN[C@H](C(=O)N(C)C)C3)[C@H](C)[C@H]12` [meropenem]: the “release of nucleoids (cell wall damage)” value in the assay on Pseudomonas aeruginosa [5] is recorded as “releasing of nucleoids due to affectation of the cell wall”.

lysozyme: in the assay on Enterococcus faecalis (lysozyme 1 mg/ml 10 min at 37° C. and lysing solution, no erythromycin, erythromycin-resistant strain), the “partially lysed cells with spreading nucleoid fibers” value was 97.36%. Moreover, the “lysed cells releasing nucleoid fibers” value in the assay with Enterococcus faecalis (lysozyme 1 mg/ml 10 min at 37° C. and lysing solution, no erythromycin, erythromycin-susceptible strain) was found to be 92.13%.

In the case of `NCC[C@H](O)C(=O)N[C@@H]1C[C@H](N)[C@@H](O[C@H]2O[C@H](CN)[C@@H](O)[C@H](O)[C@H]2O)[C@H](O)[C@H]1O[C@H]1O[C@H](CO)[C@@H](O)[C@H](N)[C@H]1O` [amikacin], in the assay with Escherichia coli [1] (inhibitor followed by a quinolone, susceptible and resistant E. coli), the “outcome of rapid susceptibility test with another protein synthesis inhibitor” value is “successfully determined”.

With `O=C(O)c1cn(C2CC2)c2cc(N3CCNCC3)c(F)cc2c1=O` [ciprofloxacin], in the assay with Escherichia coli [1] (ciprofloxacin alone 1 μg/ml 30 min, both strains), the “DNA fragmentation of nucleoids” value is recorded as “nucleoids with extensive fragmented DNA”. In addition, in the assay on Enterococcus faecalis (incubation with quinolones instead of a protein synthesis inhibitor), the “inhibitory response on lysis by lysozyme” value was “has not been obtained”.

On to lysostaphin, for which the “DNA fragmentation of released nucleoids” value in the assay on Staphylococcus aureus is “release of nucleoids with a large extent of DNA fragmentation”.
